# In BindingDB's records for doi:10.7270/Q2930RSV (Burnham Center For Chemical Genomics, 2012):
# Target: T1, Caspase-3 (Homo sapiens, UniProt P42574)
# T1 sequence (P42574 whole entry): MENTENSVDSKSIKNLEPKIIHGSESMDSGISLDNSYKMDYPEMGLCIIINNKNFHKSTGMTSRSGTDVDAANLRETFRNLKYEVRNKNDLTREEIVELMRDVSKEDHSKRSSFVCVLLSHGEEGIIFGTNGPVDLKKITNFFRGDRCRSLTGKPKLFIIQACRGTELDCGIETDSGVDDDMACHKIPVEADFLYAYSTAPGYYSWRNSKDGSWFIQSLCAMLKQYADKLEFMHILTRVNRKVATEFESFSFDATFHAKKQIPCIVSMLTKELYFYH
row,Structure (SMILES),IC50
1,CCCCOc1cc(NCc2ccccc2)c2ncn(C(C)C)c2c1,> 100 µM
2,CC1(C)Cc2c(nn(-c3ccccc3)c(=N)c2C#N)CO1,1.09 µM
3,CC(C)(C)c1ccc(C(=O)NNc2cc(N3CCCCC3)nc(N3CCCCC3)n2)cc1,> 100 µM
4,NS(=O)(=O)c1ccc(CCNC(=O)COC(=O)c2ccc([N+](=O)[O-])o2)cc1,> 100 µM
5,CCC(=O)c1ccc(OCc2cn(CC(=O)c3ccc(O)cc3)nn2)cc1 [1-[4-[[1-[2-(4-hydroxyphenyl)-2-oxoethyl]triazol-4-yl]methoxy]phenyl]propan-1-one],> 100 µM
6,"CCN(CC)c1ccc(NC2CC(=O)N(CCc3ccc(OC)cc3)C2=O)cc1 (stereo not drawn) [3-[4-(diethylamino)anilino]-1-[2-(4-methoxyphenyl)ethyl]pyrrolidine-2,5-dione]",> 100 µM
7,"COC(=O)c1ccc(C)cc1C1CN=NC12Cc1cc(C)ccc1C2=O (stereo not drawn) [4-methyl-2-(6-methyl-3-oxo-4'-spiro[1H-indene-2,5'-3,4-dihydropyrazole]yl)benzoic acid methyl ester]",> 100 µM
8,O=[N+]([O-])c1ccc(-n2[n-]c(=[N+]3CCOCC3)cc2O)cc1 [5-(4-morpholinyl)-2-(4-nitrophenyl)-4H-pyrazol-3-one],> 100 µM
9,Cc1[nH]n(-c2ccccc2)c(=O)c1S(=O)(=O)c1ccccc1 [5-methyl-2-phenyl-4-(phenylsulfonyl)-1H-pyrazol-3-one],> 100 µM
10,CN(C)c1ccc(NC(=O)c2ccc(Cn3cc([N+](=O)[O-])cn3)cc2)cc1 [MLS000727576],> 100 µM
11,COc1ccc(NC(=O)NNc2cc(N3CCOCC3)nc(N3CCOCC3)n2)cc1 [MLS000765810],> 100 µM
12,N#CC1(CCCN2CCCCC2)c2ccccc2CCc2ccccc21 [MLS001178552],> 100 µM
13,O=C(COC(=O)c1ccc([N+](=O)[O-])s1)NCCc1ccccc1 [MLS002159124],> 100 µM
14,"CN(C)c1cc(N=NCc2ccccc2)nc(N(C)C)n1 [N2,N2,N4,N4-tetramethyl-N6-[(phenylmethylidene)amino]pyrimidine-2,4,6-triamine]",50.7 µM
15,"O=C(NNc1cc(N2CCCC2)nc(N2CCCC2)n1)c1ccc([N+](=O)[O-])cc1 [N'-(2,6-dipyrrolidin-1-ylpyrimidin-4-yl)-4-nitrobenzohydrazide]",> 100 µM
16,"O=C(CCc1ccccc1)NNc1cc(N2CCCCC2)nc(N2CCCCC2)n1 [N'-[2,6-di(piperidin-1-yl)pyrimidin-4-yl]-3-phenylpropanehydrazide]",> 100 µM
17,COc1ccc(-c2csc(CCn3[nH]c(C)cc3=O)n2)cc1 [SMR000347900],> 100 µM
18,CC(NC(=O)COC(=O)c1ccc([N+](=O)[O-])s1)c1ccccc1 (stereo not drawn) [[2-oxo-2-(1-phenylethylamino)ethyl] 5-nitrothiophene-2-carboxylate],> 100 µM
